Experimental findings from patent US20080167444A1, “Abc Transporter Inhibitor” (priority 2004, published 2008) are described below.

Values joined by “and” are separate entries in the source; they are usually repeats but may differ in a detail not shown here. Equal values may be shown once.

Series [1] addresses T1, PDR5 protein (Saccharomyces cerevisiae, UniProt P33302).
T1 construct: expressed in transfected cells; host or cells: Saccharomyces cerevisiae W303 (MAT a Δsyr/erg3::HIS3 Δpdr5::LEU2 Δsnq2::HIS3)
Description: Growth inhibition of yeast with overexpressed PDR5 in the presence of cycloheximide or cerulenin (absorbance at 660 nm). The format is cell-based. The following applies: for IC50: IC50 (concentration for 50% growth-inhibition), IC50 of cycloheximide or cerulenin, without or with addition of 5 μg/mL enniatin mixture or FK-506; for inhibition of growth of the yeast with overexpressed PDR5: test drug at 5 μg/mL, cycloheximide or cerulenin present, static culture 30° C. 24 hours. The method, then:
(§1) Yeast with overexpressed PDR5 by transformation of the host yeast (Saccharomyces cerevisiae W303 (MAT a Δsyr/erg3::HIS3 Δpdr5::LEU2 Δsnq2::HIS3)) with the PDR5 expression vector and the host yeast were inoculated separately in 4 mL each of the minimum medium followed by shaking culture at 30° C. for 12 hours. To a 96-well microtiter plate to which cycloheximide or cerulenin of various concentrations had been added, was added purified enniatin B, B1, D, or enniatin mixture of various concentrations, followed by inoculation of the above-mentioned yeast. The volume per well was adjusted to 200 μL by addition of the minimum medium. After static culture at 30° C. for 24 hours, the extent of growth of yeast was determined for evaluation of the growth-inhibiting activity of the test drug against the yeast with overexpressed PDR5 and against the host yeast. The extent of growth of yeast was determined by measurement of absorbance at 660 nm using a microtiter plate reader (MTP-500; CORONA). The growth-inhibiting activity against the yeast with overexpressed PDR5 and against the host yeast was also determined for immunosuppressor FK-506, the positive control, which is known to inhibit yeast PDR5 protein and human MDR1 protein (P-glycoprotein).

For series [2], the system named is host yeast (Saccharomyces cerevisiae W303 (MAT a Δsyr/erg3::HIS3 Δpdr5::LEU2 Δsnq2::HIS3)). Description: Growth inhibition of the host yeast (PDR5 and SNQ2 deleted). The format is cell-based. The following applies: test drug elevated to 5 μg/mL; static culture 30° C. 24 hours. The method, then:
as §1

Series [3] deals with T1, PDR5 protein. Description: Rhodamine 6G accumulation in yeast with overexpressed PDR5 (fluorescence microscope). The class given is cell-based. The following applies: drug at final concentration 25 μg/mL, 2 hours, then rhodamine 6G 30 minutes. The protocol:
(§2) The above-mentioned strain with overexpressed PDR5 and the above-mentioned host yeast were separately subjected to shaking culture at 30° C. for 12 hours in 4 mL of the minimum medium. Then a quantity of yeast corresponding to 1.0×10^6 cells was inoculated to 4 mL of the minimum medium. Enniatin B, B1, D, enniatin mixture, or FK-506 was added to the final concentration of 25 μg/mL, and after shaking culture at 30° C. for 2 hours, 15 μL of rhodamine 6G (1 mg/mL) was added followed by culture under the same conditions for 30 minutes. After culture, the culture was washed twice with 2% glucose solution in PBS (phosphate-buffered saline) and the fluorescence in yeast cells was observed under a fluorescence microscope (Nicon ECLIPSE E400, using G-2A filter).

Series [4] concerns PDR5-deleted host yeast. Description: Rhodamine 6G accumulation in PDR5-deleted host yeast (fluorescence microscope). The class given is cell-based, Saccharomyces cerevisiae. The following applies: drug at final concentration 25 μg/mL; compared with no addition of the drug. The protocol: as §2
In series [5] the test system is PDR5 gene. Description: PDR5 transcription activity, β-galactosidase (lacZ) reporter downstream of Pdr5 promoter. To be noted: drug at final concentration 25 μg/mL, 8 hours; compared with no addition. The format is cell-based, yeast. The protocol:
The effect of enniatin on expression of PDR5 gene was analyzed based on measurement of the PDR5 transcription activity using β-galactosidase gene as the reporter gene. Yeast, where had been introduced a recombinant plasmid obtained by fusion of β-galactosidase gene (lacZ) in the downstream of Pdr5 promoter, was subjected to shaking culture at 30° C. for 8 hours in 4 mL of YEPD medium, and a quantity of yeast corresponding to 1.0×10^6 cells was inoculated in 4 mL of the medium. At the same time, enniatin B, B1, D, enniatin mixture, or FK-506 was added to the final concentration of 25 μg/mL. After shaking culture at 30° C. for 8 hours, 1.0×10^7 yeast cells were collected. The cells were then suspended in 1 mL of Z buffer solution (60 mM disodium hydrogen phosphate, 40 mM sodium dihydrogen phosphate, 10 mM potassium chloride, 1 mM magnesium sulfate, 50 mM […], pH 7.0). The cell suspension was treated with 45 μL of chloroform and 30 μL of 0.1% sodium dodecyl sulfate at 30° C. for 5 minutes. The suspension was then treated with 200 μL of o-NPG (o-nitrophenyl-β-D-galactopyranoside) of 4 mg/mL at 30° C. for 10 minutes. After reaction was stopped by addition of 500 μL of 1 M sodium carbonate, absorbance at 420 nm was measured to determine the activity of β-galactosidase. The activity of β-galactosidase was calculated using a unit=1000×A420/10 (reaction time). […] Thus it could be confirmed that inhibition of PDR5 function by enniatin B, B1, D, enniatin mixture, or FK-506 is not ascribable to the inhibition of transcription of PDR5 gene.

For series [6], the system named is PDR5 protein. Description: Western blotting of PDR5 protein (quantity and stability). The following applies: after addition of the drug. The format is cell-based, yeast. An excerpt:
The effects of enniatin B, B1, D, and enniatin mixture on the quantity of PDR5 protein as the translation product and on the stability of PDR5 protein were investigated by Western blotting of PDR5 protein. After addition of enniatin B, B1, D, or enniatin mixture, quantitative change of PDR5 protein was not observed, which confirmed that apparent inhibition of the function of PDR5 gene product is ascribable neither to inhibition of translation of PDR5 protein nor to reduced stability of the protein through acceleration of decomposition of PDR5 protein.

T1 sequence (P33302 whole entry): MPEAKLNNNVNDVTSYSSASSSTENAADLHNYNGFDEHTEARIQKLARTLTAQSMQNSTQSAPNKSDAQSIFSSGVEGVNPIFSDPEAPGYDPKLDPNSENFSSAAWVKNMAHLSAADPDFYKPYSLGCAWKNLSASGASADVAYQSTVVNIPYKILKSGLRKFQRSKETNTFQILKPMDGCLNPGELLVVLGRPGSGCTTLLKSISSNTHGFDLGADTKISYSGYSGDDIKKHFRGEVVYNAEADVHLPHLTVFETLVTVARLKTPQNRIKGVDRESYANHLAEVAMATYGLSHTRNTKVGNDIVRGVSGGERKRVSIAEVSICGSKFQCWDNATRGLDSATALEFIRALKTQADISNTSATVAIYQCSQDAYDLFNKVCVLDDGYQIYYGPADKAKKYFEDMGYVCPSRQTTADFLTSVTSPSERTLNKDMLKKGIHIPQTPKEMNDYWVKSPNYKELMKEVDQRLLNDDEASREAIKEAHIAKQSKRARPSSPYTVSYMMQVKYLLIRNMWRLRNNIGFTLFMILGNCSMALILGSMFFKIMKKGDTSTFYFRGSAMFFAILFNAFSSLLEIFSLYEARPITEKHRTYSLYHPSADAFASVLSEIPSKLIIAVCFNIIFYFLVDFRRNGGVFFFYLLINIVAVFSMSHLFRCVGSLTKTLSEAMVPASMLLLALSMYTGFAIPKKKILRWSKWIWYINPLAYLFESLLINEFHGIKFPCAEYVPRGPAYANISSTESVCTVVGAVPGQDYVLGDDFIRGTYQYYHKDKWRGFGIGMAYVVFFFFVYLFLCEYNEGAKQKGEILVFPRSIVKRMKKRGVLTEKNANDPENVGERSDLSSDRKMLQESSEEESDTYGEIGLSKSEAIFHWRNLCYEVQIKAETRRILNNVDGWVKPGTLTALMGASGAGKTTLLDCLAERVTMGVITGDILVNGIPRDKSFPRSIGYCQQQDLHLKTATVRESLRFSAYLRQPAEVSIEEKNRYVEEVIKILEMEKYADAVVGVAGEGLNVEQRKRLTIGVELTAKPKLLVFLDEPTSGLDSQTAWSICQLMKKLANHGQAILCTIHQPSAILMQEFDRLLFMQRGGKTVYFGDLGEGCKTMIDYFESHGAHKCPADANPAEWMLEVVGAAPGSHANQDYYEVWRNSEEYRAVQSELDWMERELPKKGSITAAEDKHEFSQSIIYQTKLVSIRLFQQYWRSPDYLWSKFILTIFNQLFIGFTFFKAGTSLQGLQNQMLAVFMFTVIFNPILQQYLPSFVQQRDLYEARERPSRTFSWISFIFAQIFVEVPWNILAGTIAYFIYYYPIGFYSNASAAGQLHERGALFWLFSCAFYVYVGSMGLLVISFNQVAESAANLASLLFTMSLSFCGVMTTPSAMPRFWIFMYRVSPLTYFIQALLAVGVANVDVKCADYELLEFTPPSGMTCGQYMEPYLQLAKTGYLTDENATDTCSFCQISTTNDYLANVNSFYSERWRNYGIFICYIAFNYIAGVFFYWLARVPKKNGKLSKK

With `C/C=C/C/C=C/CCC(=O)[C@H]1O[C@H]1C(N)=O` [Cerulenin], the IC50 in series [1] is 1500 nM and 1570 nM.
Regarding `CC[C@H](C)[C@H]1C(=O)O[C@H](C(C)C)C(=O)N(C)[C@@H](C(C)C)C(=O)O[C@H](C(C)C)C(=O)N(C)[C@@H](C(C)C)C(=O)O[C@H](C(C)C)C(=O)N1C` [enniatin B1, Enniatin B1], the “inhibition of growth of the yeast with overexpressed PDR5” value (shortened to “inhibition of growth of the yeast”) in series [1] was “completely”. Also, the “inhibition of growth of the host yeast (cytotoxicity)” value (shortened to “inhibition of growth … (cytotoxicity)”) in series [2] was “not observed”. Besides, the “rhodamine 6G accumulation in yeast with overexpressed PDR5” value (shortened to “rhodamine 6G accumulation in yeast”) in series [3] was “accumulated rhodamine 6G”. The “rhodamine 6G accumulation in PDR5-deleted host yeast” value in series [4] was “rhodamine 6G was accumulated in yeast cells”. In series [5], the “activity of β-galactosidase (PDR5 transcription activity)” value (“activity of β-galactosidase” below) was “not different from that without addition of the drug”. Further, in series [6], the “quantitative change of PDR5 protein (Western blotting)” value (shortened to “quantitative change of PDR5 protein”) is on record as “not observed”.
As for `CC(C)[C@H]1C(=O)O[C@H](C(C)C)C(=O)N(C)[C@@H](C(C)C)C(=O)O[C@H](C(C)C)C(=O)N(C)[C@@H](C(C)C)C(=O)O[C@H](C(C)C)C(=O)N1C` [enniatin B, Enniatin B], the “inhibition of growth of the yeast” value in series [1] is recorded as “completely”. Moreover, in series [2], the “inhibition of growth … (cytotoxicity)” value was “not observed”. For the same molecule, the “rhodamine 6G accumulation in yeast” value in series [3] is on record as “accumulated rhodamine 6G”. The “rhodamine 6G accumulation in PDR5-deleted host yeast” value in series [4] is reported as “rhodamine 6G was accumulated in yeast cells”. Moreover, in series [5], the “activity of β-galactosidase” value was “not different from that without addition of the drug”. The “quantitative change of PDR5 protein” value in series [6] is recorded as “not observed”.
With `C[C@@H]1C[C@@H]([C@H](O)CC2CC(=O)NC(=O)C2)C(=O)[C@@H](C)C1` [Cycloheximide], in series [1], the IC50 is 462 nM and 434 nM.
With `CC(C)CC1C(=O)OC(C(C)C)C(=O)N(C)C(C(C)C)C(=O)OC(C(C)C)C(=O)N(C)C(C(C)C)C(=O)OC(C(C)C)C(=O)N1C` (centres unmarked) [enniatin D, Enniatin D], in series [1], the “inhibition of growth of the yeast” value was “completely”. The “inhibition of growth … (cytotoxicity)” value in series [2] was “not observed”. Also, in series [3], the “rhodamine 6G accumulation in yeast” value is listed as “accumulated rhodamine 6G”. Besides, the “rhodamine 6G accumulation in PDR5-deleted host yeast” value in series [4] is on record as “rhodamine 6G was accumulated in yeast cells”. Besides, the “activity of β-galactosidase” value in series [5] is on record as “not different from that without addition of the drug”. The “quantitative change of PDR5 protein” value in series [6] was “not observed”.

One may read the IC50 as the midpoint of a concentration-inhibition curve.
